Assay results: US9428568B2, “Compositions and methods for modulating cell-cell fusion via intermediate-conductance calcium-activated potassium channels” (BOEHRINGER INGELHEIM INTERNATIONAL GMBH, priority 2008, dated 2016)
Entries after “also recorded” stand apart in the source; their conditions may differ. Where two headings read alike, the source gives them in different places.

Columns and labels:
[1] = test system: bone marrow-derived macrophages from WT mice; assay: Osteoclastogenesis / cell fusion of bone marrow-derived macrophages of WT mice under M-CSF+RANKL (TRAP+ osteoclast-like cells); assay type: cell-based, mouse
From the text: Bone marrow- and spleen-derived mouse osteoclasts. These cells were generated from four- to twelve-week-old sk4^+/+ and sk4^−/− mice as previously described (Cui et al. (2007) Proc. Natl. Acad. Sci. USA 104:14436-14441; Epub 2007 Aug. 28). Bone marrow and spleen cells were isolated, mechanically dissociated and cultured at a density of 1.33×10^6 cells per cm^2 in MEM containing 10% heat-inactivated fetal bovine serum (HyClone, Logan, Utah), 100 units/ml penicillin-streptomycin (Gibco Invitrogen, Carlsbad, Calif.), 1% MEM vitamins, 1% glutamine, and 30 ng/ml M-CSF (PeproTech, Inc. Rocky Hill, N.J.). RANKL (PeproTech, Inc.) was added at a concentration of 40 ng/ml. Media was changed every three days. To assess the formation of an actin ring, a landmark of osteoclast activity, cells were cultured in the presence of M-CSF (20 ng/ml) and RANKL (40 ng/ml) on glass slides for 8 days, fixed and reacted with phalloidin-Alexa 568 and Topro-3. To further assess resorptive activity, cells were cultured on Osteologic slides that are coated with artificial bone made of calcium-phosphate crystals. After 8 days, cells were lysed and the substrates stained with silver nitrate according to the supplier's instructions. The resorbed areas on slides were recorded by histomorphometry.

human PBMCs = assay: Human osteoclastogenesis / cell fusion of PBMCs under M-CSF+RANKL stimulation (TRAP+ osteoclast-like cells); assay type: cell-based; conditions: for IC50: PBMC, read-out: inhibition of cell fusion, IC50; for osteoclast number / osteoclast surface area: dose-dependent
Experimental: Human osteoclasts. These cells were generated using normal peripheral blood blood (Allcells, Emeryville, Calif.). Peripheral blood monocytes were isolated using Ficoll-Paque and cultured at a concentration of 3×10^6 cells/ml in MEME supplemented with 10% FCS, recombinant human M-CSF (25 ng/ml) and recombinant human RANKL (40 ng/ml). The medium was changed once a week.

SK4 channels = SK4 channels (Homo sapiens, UniProt O15554); conditions: cited from earlier work
[2] = general statement in the definition of SK4 channels

In the case of `NC(=O)C(c1ccccc1)(c1ccc(F)cc1)c1ccc(F)cc1` [ICA-17043, 2,2-bis(4-fluorophenyl)-2-phenylacetamide], the “osteoclastogenesis (surface area of TRAP+ osteoclast-like cells, POC relative to no compound control)” value ([1]; bone marrow-derived macrophages of WT (SK4+/+) mice, FIGS. 7A-B, five replicates) is reported as “attenuated osteoclastogenesis in a dose dependent manner; also recorded: prevent osteoclastogenesis in a dose-dependent manner”, the “concentration at which cell fusion was significantly inhibited (TRAP-stained images)” value ([1]; bone marrow-derived macrophages of WT mice, FIG. 7C) is reported as 0.36 µM and the “human osteoclastogenesis in vitro (surface area of TRAP+ osteoclast-like cells, POC relative to no compound control)” value (human PBMCs; FIGS. 10A-B, four replicates) is reported as “inhibited human osteoclastogenesis in vitro in a dose-dependent manner; also recorded: prevent osteoclastogenesis in a dose-dependent manner”. For the same compound, the IC50 (human PBMCs; FIGS. 10A-B) was 0.3 µM, the osteoclast number (human PBMCs) was “decreased” and the osteoclast surface area (human PBMCs) was “decreased”.
In the case of charybdotoxin, the “block of SK4 channels” value (SK4 channels; [2]) is listed as “blocked”.
For `Clc1ccccc1C(c1ccccc1)(c1ccccc1)n1cccn1` [TRAM-34, 1-[(2-chlorophenyl)diphenylmethyl]-1H-pyrazole], the IC50 (human PBMCs; FIGS. 10A-B) was 0.8 µM, the osteoclast number (human PBMCs) was “decreased” and the osteoclast surface area (human PBMCs) was “decreased”.
In the case of iberiotoxin, the “block of SK4 channels” value (SK4 channels; [2]) is listed as “not blocked”.
For `Clc1ccccc1C(c1ccccc1)(c1ccccc1)n1ccnc1` [clotrimazole, 1-[(2-chlorophenyl)-diphenylmethyl]-1H-imidazole], the “block of SK4 channels” value (SK4 channels) is listed as “blocked”.
In the case of `CC(=O)N1CCN(c2ccc(OCC3COC(Cn4ccnc4)(c4ccc(Cl)cc4Cl)O3)cc2)CC1` (stereo not shown) [ketoconazole], the “block of SK4 channels” value (SK4 channels; [2]) is listed as “not blocked”.
